{"source": "patent US20240139280A1", "about": "“USE OF HIF-1-ALPHA INHIBITORS IN CANCER IMMUNOTHERAPY” (ONCOC4, INC., priority 2021, published 2024)", "key": {"[1]": {"tested_on": "E0771 tumor microenvironment", "experiment": "Flow cytometry of dissociated E0771 tumors (tumor cells, myeloid cells, TILs)", "assay_type": "in vivo, C57BL/6 mice", "method": "FIGS. 6A-D. E0771 cells (0.5×10^6) were orthotopically transplanted into C57BL/6 mice (day 0). The mice received treatment with vehicle, echinomycin (LEM, 0.25 mg/kg/dose), anti-CTLA-4 mAb (9D9, 0.2 mg/mouse/injection), or their combination on days 6, 8, 10, and 12, and were euthanized on day 14. The tumors were dissociated and analyzed by flow cytometry to quantitate PD-L1 expression on tumor cells (gated on Singlets/Live_CD45^−) (FIG. 6A), M-MDSCs (gated on Singlets/Live_CD45^+/CD11b^+CD11c^−/Ly6ChighLy6G^−) (FIG. 6B), PMN-MDSCs (gated on Singlets/Live_CD45^+/CD11b^+CD11c^−/Ly6CInt.Ly6G^+) (FIG. 6C), or CD11c^+TAMs (gated on Singlets/Live_CD45^+/CD11b^+CD11c^+) (FIG. 6D). Upper panels show representative histograms of PD-L1 staining and lower panels show aggregate data from individual mice, pooled from three independent experiments (n=5 mice/group/experiment). Data shown are mean±SEM of PD-L1 MFI. Statistics were determined by one-way ANOVA with Sidak's multiple comparisons test (FIG. 6A), or by two-tailed unpaired t-tests (FIGS. 6B-D). FIGS. 6E-G. Echinomycin treatment reprograms the TME. Dissociated E0771 tumors were obtained from C57BL/6 mice treated with different therapies (n=5 mice/group), as described in FIGS. 6A-D. Single cell suspension were cultured for 4 hours with PMA+ionomycin+Golgi stop, surface stained, and then intracellular stained for IFNγ (for quantitation of Th1 and Tc1 cells) or surface stained for PD-L1. FIG. 6E. IFNγ expression in CD8+tumor-infiltrating lymphocytes (TILs) (gated on Singlets/Live_CD45^+/CD3^+/CD8^+CD4^−). […] FIG. 6F. IFNγ expression in the CD4^+ TILs (gated on Singlets/Live_CD45^+/CD3^+/CD8^−CD4^+). As in FIG. 6E, except that CD4 TIL were analyzed.\nFIG. 6G. MHCII expression on CD11c^+ TAMs (gated on Singlets/Live_CD45^+/CD11b^+CD11c^+).\nFIGS. 9A-H. C57BL/6 mice received E0771 cells (0.5×10^6/mouse) on day 0 followed by treatment with vehicle, echinomycin (LEM, 0.25 mg/kg/dose), anti-CTLA-4 (9D9, 0.2 mg/mouse/dose), or 9D9+LEM on days 6, 8, and 10. On day 14, tumors were analyzed by flow cytometry. […] Data are presented as the ±SEM of each group (n=5/group), analyzed by unpaired two-tailed Student's t-test and are representative of two experiments. FIGS. 9A-B. Frequencies of TILs expressing PD-1. FIGS. 9C-D. Frequencies of annexin V^+ CD8 or CD4 TILs. FIGS. 9E-F. Frequencies of CD8 TILs expressing granzyme B or perforin. FIGS. 9G-H. Granzyme B and perforin expression in CD4 TILs. FIG. 9I. Effect of depletion of CD4, CD8, or NK cells on tumor growth inhibition by 9D9+LEM in syngeneic E0771 model. C57BL/6 mice received E0771 cells (0.5×10^6/mouse) on day 0. On day 5, the mice were randomized to receive depletory antibodies (500 μg of anti-CD4 (GK1.5), anti-CD8 (YTS169.4), anti-NK1.1 (PK136), or isotype ctrl). All groups received 9D9 (200 ug) on day 6, and LEM (250 ug/kg) on days 6, 8, and 10. Mice received supplemental dose of depletory antibodies (200 μg) on days 8 and 10. The mean±SEM tumor volumes are plotted on the y axes for each group (n=5/group) and analyzed by two-way ANOVA. Representative data shown for one of two experiments."}, "[2]": {"tested_on": "leukemia stem cells", "details": "Wang et al., 2011; cited from earlier work"}, "[3]": {"tested_on": "intestinal tissues", "experiment": "Ipilimumab-induced GI-irAE in human CTLA4 knockin mice (FITC-dextran, histology, PD-L1)", "protocol": "Experimental design for GI-irAE induction by Ipilimumab, with or without additional therapies. 10-day old CTLA4h/h mice received 0.1 mg of Ipilimumab on days 10, 13, 16, and 19 after birth to induce the GI-irAE phenotype, measured by FITC-dextran assay on day 32. On day 33, the mice were sacrificed for histological and immunofluorescent analysis of intestinal tissues, and flow cytometry, etc. […] Aggregate data from 4 experiments are presented. […] Starting on day 10 after birth, the mice began receiving treatment with vehicle (n=33), echinomycin (n=27), Ipilimumab (n=33), Ipilimumab+echinomycin (n=26), Ipilimumab+RMP1-14 (n=27), Ipilimumab+echinomycin+RMP1-14 (n=28), or Ipilimumab+echinomycin+XMG1.2 (n=15). Echinomycin (10 μg/kg), Ipilimumab (0.1 mg/mouse/injection), RMP1-14 (0.2 mg/mouse/injection), and XMG1.2 (0.2 mg/mouse/injection). Vehicle or echinomycin (10 μg/kg) were given once every three days for 8 doses, and mAbs (0.1 mg/mo. for Ipilimumab; 0.2 mg/mo. for RMP1-14 and XMG1.2) once every three days for 4 doses. Data collection was performed as described in (FIG. 8A). […] Serum FITC-dextran intensity shown as mean±SEM for individual mice pooled from 3 independent experiments. […] Statistics were determined by unpaired t tests (two-tailed) for group means. […] Representative H&E images from intestines of Ipilimumab-treated mice additionally treated with echinomycin (panel i), RMP1-14 (panels ii-iv), echinomycin+RMP1-14 (panels v-vi), or echinomycin+XMG1.2 (panels vii-viii). […] Representative immunofluorescence images showing relative expression of PD-L1 in jejunum of mice from different treatment groups.\nTherefore, we used intestinal permeability to orally administrated FITC-dextran and histology as the readout for irAE (FIG. 8A)."}, "[4]": {"details": "with or without anti-CTLA-4 therapy"}}, "data": [{"smiles": "CSC1SC[C@H]2C(=O)N(C)[C@@H](C(C)C)C(=O)OC[C@@H](NC(=O)c3cnc4ccccc4n3)C(=O)N[C@@H](C)C(=O)N(C)[C@@H]1C(=O)N(C)[C@@H](C(C)C)C(=O)OC[C@@H](NC(=O)c1cnc3ccccc3n1)C(=O)N[C@@H](C)C(=O)N2C", "note": "(stereo in doubt) [echinomycin, N,N′-(2,4,12,15,17,25-hexamethyl-11,24-bis(1-methylethyl)-27-(methylthio)-3,6,10,13,16,19,23,26-octaoxo-9,22-dioxa-28-thia-2,5,12,15,18,25-hexaazabicyclo(12.12.3)nonacosane-7,20-diyl)bis(2-quinoxalinecarboxamide)]", "values": [{"measurement": "frequencies of tumor-infiltrated lymphocytes or myeloid subsets", "setting": "[1]; E0771 tumors", "value": "did not significantly impact"}, {"measurement": "apoptotic (annexin V) CD8 TILs", "setting": "[1]; compared to vehicle, echinomycin added to 9D9", "value": "appeared to repress this effect"}, {"measurement": "PD-1 expression on CD8 TILs", "setting": "[1]; compared to vehicle, echinomycin added to anti-CTLA-4", "value": "reversed"}, {"measurement": "PD-L1 expression on CD11b+CD11c+ double-positive cells", "setting": "[1]; [4]", "value": "significantly reduced PD-L1 expression"}, {"measurement": "PD-L1 expression on PMN-MDSCs", "setting": "[1]; [4]", "value": "significantly reduced PD-L1 expression"}, {"measurement": "PD-L1 expression on tumor-infiltrated monocytic MDSCs (M-MDSC)", "setting": "[1]; [4]", "value": "significantly reduced PD-L1 expression"}, {"measurement": "PD-L1 expression on tumor cells", "setting": "[1]; with or without anti-CTLA-4 therapy, LEM 0.25 mg/kg/dose", "value": "significantly reduced PD-L1 expression"}, {"measurement": "elimination of leukemia stem cells", "setting": "[2]", "value": "effectively eliminated leukemia stem cells"}, {"measurement": "PD-L1 expression in the intestines", "setting": "[3]; Ipilimumab 0.1 mg/mouse/injection, echinomycin 10 μg/kg added to Ipilimumab", "value": "enhanced PD-L1 expression"}, {"measurement": "Ipilimumab-induced intestinal leakage (FITC-dextran)", "setting": "[3]; agent added to Ipilimumab (anti-PD-1 added to Ipilimumab+echinomycin)", "value": "protected against Ipilimumab-induced intestinal leakage"}, {"measurement": "H&E findings in intestines of Ipilimumab-treated mice additionally treated with the agent", "setting": "[3]; representative images, FIG. 8F panels", "value": "normal pathology"}]}]}
